Test results from the supplement of paper PMC10307832.

What was measured:
Test in all cases: relative viability (nuclei count vs DMSO), 5 days (fraction); higher = more cells survive
[1] = compound: C1=CC(=CC=C1NC(=S)NNC2=C(C=C(C=C2[N+](=O)[O-])C(F)(F)F)[N+](=O)[O-])F [Kobe2602] + CCNC(=O)c1noc(-c2cc(C(C)C)c(O)cc2O)c1-c1ccc(CN2CCOCC2)cc1 [Luminespib] (partner 0.01 µM)
In short: (§1)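 Lung cancer cell lines in 1536-well plates got either a single drug or a fixed anchor-drug dose together with five library-drug doses (not always all listed) in √10 steps, by pin tool, on the day after seeding. Nuclei were counted after 5 days, and relative viability is the treated-to-vehicle ratio of nuclei counts. Values are medians of duplicate plates.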

[2] = compound: C1=CC(=CC=C1NC(=S)NNC2=C(C=C(C=C2[N+](=O)[O-])C(F)(F)F)[N+](=O)[O-])F [Kobe2602] + Nc1nc2[nH]cc(CCc3ccc(C(=O)N[C@@H](CCC(=O)O)C(=O)O)cc3)c2c(=O)[nH]1 [Pemetrexed] (partner 0.2 µM)
In short: as §1

[3] = compound: COc1cc2nccc(Oc3ccc(NC(=O)C4(C(=O)Nc5ccc(F)cc5)CC4)cc3)c2cc1OC [Cabozantinib] + COc1cc2c(Oc3ccc(NC(=O)C4(C(=O)Nc5ccc(F)cc5)CC4)cc3F)ccnc2cc1OCCCN1CCOCC1 [Foretinib] (partner 0.25 µM)
In short: as §1

[4] = compound: O[C@@H](COc1cccc2ncccc12)CN1CCN([C@@H]2c3ccccc3[C@@H]3[C@H](c4ccccc42)C3(F)F)CC1 [Zosuquidar] + COc1cccc2cc(-c3nc([C@H]4CC[C@H](C(=O)O)CC4)n4ncnc(N)c34)[nH]c12 [OSI-027] (partner 0.5 µM)
In short: as §1

Cell Line: NCI-H520
- relative viability ([1]; first compound 0.2 µM): 0.256
- relative viability ([1]; first compound 0.6325 µM): 0.193
- relative viability ([1]; first compound 2 µM): 0.224
- relative viability ([1]; first compound 6.325 µM): 0.206
- relative viability ([1]; first compound 20 µM): 0.215
- relative viability ([2]; first compound 0.2 µM): 0.709
- relative viability ([2]; first compound 0.6325 µM): 0.675
- relative viability ([2]; first compound 2 µM): 0.559
- relative viability ([2]; first compound 6.325 µM): 0.724
- relative viability ([2]; first compound 20 µM): 0.772
- relative viability ([3]; first compound 0.02 µM): 0.756
- relative viability ([3]; first compound 0.06325 µM): 0.756
- relative viability ([3]; first compound 0.2 µM): 0.778
- relative viability ([3]; first compound 0.6325 µM): 0.804
- relative viability ([3]; first compound 2 µM): 0.889
- relative viability ([4]; first compound 0.01 µM): 0.266
- relative viability ([4]; first compound 0.03162 µM): 0.294
- relative viability ([4]; first compound 0.3162 µM): 0.237
- relative viability ([4]; first compound 1 µM): 0.236

Cell Line: NCI-H1915
- relative viability ([1]; first compound 0.2 µM): 0.778
- relative viability ([1]; first compound 0.6325 µM): 0.875
- relative viability ([1]; first compound 2 µM): 0.783
- relative viability ([1]; first compound 6.325 µM): 0.852
- relative viability ([1]; first compound 20 µM): 0.693
- relative viability ([2]; first compound 0.2 µM): 0.489
- relative viability ([2]; first compound 0.6325 µM): 0.498
- relative viability ([2]; first compound 2 µM): 0.458
- relative viability ([2]; first compound 6.325 µM): 0.503
- relative viability ([2]; first compound 20 µM): 0.45
- relative viability ([3]; first compound 0.02 µM): 1.17
- relative viability ([3]; first compound 0.06325 µM): 1.14
- relative viability ([3]; first compound 0.2 µM): 1.08
- relative viability ([3]; first compound 0.6325 µM): 1.07
- relative viability ([3]; first compound 2 µM): 1.13
- relative viability ([4]; first compound 0.01 µM): 0.642
- relative viability ([4]; first compound 0.03162 µM): 0.624
- relative viability ([4]; first compound 0.1 µM): 0.529
- relative viability ([4]; first compound 0.3162 µM): 0.637
- relative viability ([4]; first compound 1 µM): 0.599

Cell Line: HCC-827
- relative viability ([1]; first compound 0.2 µM): 0.856
- relative viability ([1]; first compound 0.6325 µM): 0.793
- relative viability ([1]; first compound 2 µM): 0.619
- relative viability ([1]; first compound 6.325 µM): 0.369
- relative viability ([1]; first compound 20 µM): 0.831
- relative viability ([2]; first compound 0.2 µM): 0.293
- relative viability ([2]; first compound 0.6325 µM): 0.241
- relative viability ([2]; first compound 2 µM): 0.281
- relative viability ([2]; first compound 6.325 µM): 0.261
- relative viability ([2]; first compound 20 µM): 0.261
- relative viability ([3]; first compound 0.02 µM): 1.05
- relative viability ([3]; first compound 0.06325 µM): 1.05
- relative viability ([3]; first compound 0.6325 µM): 1.1
- relative viability ([3]; first compound 2 µM): 0.988
- relative viability ([4]; first compound 0.01 µM): 0.828
- relative viability ([4]; first compound 0.03162 µM): 0.723
- relative viability ([4]; first compound 0.1 µM): 0.673
- relative viability ([4]; first compound 0.3162 µM): 0.828
- relative viability ([4]; first compound 1 µM): 0.788

Cell Line: EMC-BAC-2
- relative viability ([1]; first compound 0.2 µM): 1.16
- relative viability ([1]; first compound 0.6325 µM): 1.16
- relative viability ([1]; first compound 2 µM): 1.13
- relative viability ([1]; first compound 6.325 µM): 1.31
- relative viability ([1]; first compound 20 µM): 1.14
- relative viability ([2]; first compound 0.2 µM): 0.459
- relative viability ([2]; first compound 0.6325 µM): 0.453
- relative viability ([2]; first compound 2 µM): 0.445
- relative viability ([2]; first compound 6.325 µM): 0.492
- relative viability ([2]; first compound 20 µM): 0.457
- relative viability ([3]; first compound 0.02 µM): 1.02
- relative viability ([3]; first compound 0.06325 µM): 0.973
- relative viability ([3]; first compound 0.2 µM): 1.04
- relative viability ([3]; first compound 0.6325 µM): 0.982
- relative viability ([3]; first compound 2 µM): 0.962
- relative viability ([4]; first compound 0.01 µM): 0.365
- relative viability ([4]; first compound 0.03162 µM): 0.365
- relative viability ([4]; first compound 0.1 µM): 0.373
- relative viability ([4]; first compound 0.3162 µM): 0.435
- relative viability ([4]; first compound 1 µM): 0.376

Cell Line: NCI-H650
- relative viability ([1]; first compound 0.2 µM): 0.754
- relative viability ([1]; first compound 0.6325 µM): 0.897
- relative viability ([1]; first compound 2 µM): 0.796
- relative viability ([1]; first compound 6.325 µM): 0.748
- relative viability ([1]; first compound 20 µM): 0.717
- relative viability ([2]; first compound 0.2 µM): 0.816
- relative viability ([2]; first compound 0.6325 µM): 1.04
- relative viability ([2]; first compound 2 µM): 0.867
- relative viability ([2]; first compound 6.325 µM): 1.05
- relative viability ([2]; first compound 20 µM): 0.889
- relative viability ([3]; first compound 0.06325 µM): 1.03
- relative viability ([3]; first compound 0.2 µM): 1.06
- relative viability ([3]; first compound 0.6325 µM): 0.999
- relative viability ([3]; first compound 2 µM): 0.984
- relative viability ([4]; first compound 0.01 µM): 0.514
- relative viability ([4]; first compound 0.03162 µM): 0.477
- relative viability ([4]; first compound 0.1 µM): 0.433
- relative viability ([4]; first compound 0.3162 µM): 0.553
- relative viability ([4]; first compound 1 µM): 0.576

Cell Line: NCI-H2009
- relative viability ([1]; first compound 0.2 µM): 1.04
- relative viability ([1]; first compound 0.6325 µM): 1.1
- relative viability ([1]; first compound 2 µM): 1.07
- relative viability ([1]; first compound 6.325 µM): 1.09
- relative viability ([1]; first compound 20 µM): 0.964
- relative viability ([2]; first compound 0.2 µM): 1.02
- relative viability ([2]; first compound 0.6325 µM): 1.03
- relative viability ([2]; first compound 2 µM): 1.09
- relative viability ([2]; first compound 6.325 µM): 1.02
- relative viability ([2]; first compound 20 µM): 0.979
- relative viability ([3]; first compound 0.02 µM): 1.24
- relative viability ([3]; first compound 0.06325 µM): 1.26
- relative viability ([3]; first compound 0.2 µM): 1.19
- relative viability ([3]; first compound 0.6325 µM): 1.28
- relative viability ([3]; first compound 2 µM): 1.29
- relative viability ([4]; first compound 0.01 µM): 0.64
- relative viability ([4]; first compound 0.03162 µM): 0.684
- relative viability ([4]; first compound 0.1 µM): 0.529
- relative viability ([4]; first compound 0.3162 µM): 0.782
- relative viability ([4]; first compound 1 µM): 0.645

Cell Line: NCI-H2405
- relative viability ([1]; first compound 0.2 µM): 0.674
- relative viability ([1]; first compound 0.6325 µM): 0.694
- relative viability ([1]; first compound 2 µM): 0.73
- relative viability ([1]; first compound 6.325 µM): 0.771
- relative viability ([1]; first compound 20 µM): 0.719
- relative viability ([2]; first compound 0.2 µM): 1.07
- relative viability ([2]; first compound 0.6325 µM): 1.21
- relative viability ([2]; first compound 2 µM): 0.888
- relative viability ([2]; first compound 6.325 µM): 1.1
- relative viability ([2]; first compound 20 µM): 1.08
- relative viability ([3]; first compound 0.02 µM): 1.01
- relative viability ([3]; first compound 0.06325 µM): 1.04
- relative viability ([3]; first compound 0.2 µM): 1.05
- relative viability ([3]; first compound 0.6325 µM): 1.05
- relative viability ([3]; first compound 2 µM): 1.01
- relative viability ([4]; first compound 0.01 µM): 0.67
- relative viability ([4]; first compound 0.03162 µM): 0.656
- relative viability ([4]; first compound 0.1 µM): 0.503
- relative viability ([4]; first compound 0.3162 µM): 0.713
- relative viability ([4]; first compound 1 µM): 0.631

Cell Line: SW 900
- relative viability ([1]; first compound 0.2 µM): 0.164
- relative viability ([1]; first compound 0.6325 µM): 0.185
- relative viability ([1]; first compound 2 µM): 0.191
- relative viability ([1]; first compound 6.325 µM): 0.166
- relative viability ([1]; first compound 20 µM): 0.199
- relative viability ([2]; first compound 0.2 µM): 0.472
- relative viability ([2]; first compound 0.6325 µM): 0.489
- relative viability ([2]; first compound 2 µM): 0.479
- relative viability ([2]; first compound 6.325 µM): 0.487
- relative viability ([2]; first compound 20 µM): 0.493
- relative viability ([3]; first compound 0.02 µM): 0.848
- relative viability ([3]; first compound 0.06325 µM): 0.952
- relative viability ([3]; first compound 0.2 µM): 0.837
- relative viability ([3]; first compound 0.6325 µM): 0.695
- relative viability ([3]; first compound 2 µM): 0.968
- relative viability ([4]; first compound 0.01 µM): 0.676
- relative viability ([4]; first compound 0.03162 µM): 0.507
- relative viability ([4]; first compound 0.1 µM): 0.493
- relative viability ([4]; first compound 0.3162 µM): 0.646
- relative viability ([4]; first compound 1 µM): 0.706
